# Reference: PubChem BioAssay (NCI)
#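 Compound exposure: 48 hours, 5 concentrations, 96-well plates. TGI denotes the concentration required for complete inhibition of growth.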
# System: SR leukemia
# Assay: DTP human tumour cell line panel, 48 h
row,Compound,TGI
1,C[C@]12C=CC(=O)C=C1CC[C@H]1[C@@H]3C[C@@H](O)[C@](O)(C(=O)CO)[C@@]3(C)C[C@H](O)[C@@]12F,> 100 µM
2,CCOC(=O)C1=C(C)N(C)C23OC4(C(=O)OC)CC2c2ccccc2C1N3C4=O (configuration not stated),> 100 µM
3,CC(=O)c1c2c(cc3c1CC1(Cc4ccccc4C1=O)C3)CCC2 (configuration not stated),47.9 µM
4,CC(=O)NC1C(OCc2ccccc2)OC(CO)C(O)C1OC(C)C(=O)NC(C)C(=O)NC(CCC(=O)NCCCNc1c2ccccc2nc2cccc([N+](=O)[O-])c12)C(N)=O (configuration not stated),> 100 µM
5,COc1ccc(C2CC(=O)CC(c3ccc(OC)cc3)C23C(=O)NC(=O)NC3=O)cc1 (configuration not stated),> 100 µM
6,COC(C)(C)C1=CCC(C)CC1 (configuration not stated),78 µM
7,C=C1CC(c2ccc(OCCCN3C(=O)c4ccccc4C3=O)c(OC)c2)OC1=O (configuration not stated),2.72 µM
8,c1ccc2sc(C3(N4CCCC4)CCCCCC3)cc2c1,44.1 µM

# System: U251 CNS
# Assay: DTP human tumour cell line panel, 48 h
row,Compound,TGI
1,S=C(NCc1ccccc1)c1nc[nH]c1C(=S)NCc1ccccc1,18.4 µM
2,O=C(c1ccc(O)cc1)C1c2c3c(cc(O)c2C(c2ccc(O)cc2)C1c1cc(O)cc(O)c1)OC(c1ccc(O)cc1)C3c1cc2c(cc1O)OC(c1ccc(O)cc1)C2c1cc(O)cc(O)c1 (configuration not stated),> 12.5 µM
3,Cc1cc2nc3c(C#N)c(-c4ccccc4)cc(Nc4ccc(Cl)cc4)n3c2cc1C,> 100 µM
4,CC(=O)OCCn1cnc2nc(Nc3ccccc3)nc(Cl)c21,> 100 µM
5,CCC1(CC)SCc2nc3ccccc3n21,> 100 µM
6,O=C1OC[C@@H]2Cc3cc4c(cc3[C@H](c3ccc5c(c3)OCO5)[C@@H]12)OCO4,> 25 µM
7,N#C/C(C(=O)Nc1ccccc1)=C(/N)N1CCOCC1,> 100 µM
8,O/N=C1/COC(C(F)(F)F)(C(F)(F)F)C1,> 100 µM
9,O=S1(=O)OCCOS(=O)(=O)C1F,> 100 µM
10,C[C@]12CC[C@H](O)CC1=CC[C@@H]1[C@@H]2CC[C@]2(C)C(=O)[C@@H](N3CCOCC3)C[C@@H]12,> 100 µM
11,CC(=O)n1nc(-c2ccccc2)n(/N=C/c2ccc([N+](=O)[O-])cc2)c1=O,> 100 µM
12,COc1ccc(C(=O)Sc2c(-c3ccccc3)c(=O)n(-c3ccccc3)c(=S)n2-c2ccccc2)cc1,> 100 µM
13,Cc1ccc(S(=O)(=O)N/N=C/C(=C/c2ccc(Cl)cc2)CC(/C=N/NS(=O)(=O)c2ccc(C)cc2)=C\c2ccc(Cl)cc2)cc1,17.2 µM
14,COc1cc(C[S+]2CCCC2)c(SC)cc1C[S+]1CCCC1,> 100 µM
15,COCCOCc1nc(C#N)c(N)o1,> 100 µM
16,CC1=C(C#N)C(C#N)(C#N)C(NN(C)C)C1 (configuration not stated),> 100 µM
17,C[C@]12C=CC(=O)C=C1CC[C@H]1[C@@H]3C[C@@H](O)[C@](O)(C(=O)CO)[C@@]3(C)C[C@H](O)[C@@]12F,> 100 µM
18,CCSc1n/c(=C\c2ccco2)c2nnnn12,> 100 µM
19,CCOC(=O)C1=C(C)N(C)C23OC4(C(=O)OC)CC2c2ccccc2C1N3C4=O (configuration not stated),> 100 µM
20,CC(=O)c1c2c(cc3c1CC1(Cc4ccccc4C1=O)C3)CCC2 (configuration not stated),> 100 µM
21,CC(=O)NC1C(OCc2ccccc2)OC(CO)C(O)C1OC(C)C(=O)NC(C)C(=O)NC(CCC(=O)NCCCNc1c2ccccc2nc2cccc([N+](=O)[O-])c12)C(N)=O (configuration not stated),12.8 µM
22,COc1cc(Nc2cnc3cc(F)c(F)cc3n2)cc(OC)c1OC,> 100 µM
23,COc1ccc(C2CC(=O)CC(c3ccc(OC)cc3)C23C(=O)NC(=O)NC3=O)cc1 (configuration not stated),> 100 µM
24,COC(C)(C)C1=CCC(C)CC1 (configuration not stated),> 100 µM
25,C=C1CC(c2ccc(OCCCN3C(=O)c4ccccc4C3=O)c(OC)c2)OC1=O (configuration not stated),23.5 µM
26,c1ccc2sc(C3(N4CCCC4)CCCCCC3)cc2c1,30.9 µM

# System: UO-31 renal
# Assay: DTP human tumour cell line panel, 48 h
row,Compound,TGI
1,O=C(c1ccc(O)cc1)C1c2c3c(cc(O)c2C(c2ccc(O)cc2)C1c1cc(O)cc(O)c1)OC(c1ccc(O)cc1)C3c1cc2c(cc1O)OC(c1ccc(O)cc1)C2c1cc(O)cc(O)c1 (configuration not stated),> 12.5 µM
2,Cc1cc2nc3c(C#N)c(-c4ccccc4)cc(Nc4ccc(Cl)cc4)n3c2cc1C,> 100 µM
3,CCC1(CC)SCc2nc3ccccc3n21,> 100 µM
4,O=C1OC[C@@H]2Cc3cc4c(cc3[C@H](c3ccc5c(c3)OCO5)[C@@H]12)OCO4,> 25 µM
5,N#C/C(C(=O)Nc1ccccc1)=C(/N)N1CCOCC1,> 100 µM
6,O/N=C1/COC(C(F)(F)F)(C(F)(F)F)C1,> 100 µM
7,O=S1(=O)OCCOS(=O)(=O)C1F,> 100 µM
8,C[C@]12CC[C@H](O)CC1=CC[C@@H]1[C@@H]2CC[C@]2(C)C(=O)[C@@H](N3CCOCC3)C[C@@H]12,> 100 µM
9,CC(=O)n1nc(-c2ccccc2)n(/N=C/c2ccc([N+](=O)[O-])cc2)c1=O,> 100 µM
10,Cc1ccc(S(=O)(=O)N/N=C/C(=C/c2ccc(Cl)cc2)CC(/C=N/NS(=O)(=O)c2ccc(C)cc2)=C\c2ccc(Cl)cc2)cc1,18.7 µM
11,COc1cc(C[S+]2CCCC2)c(SC)cc1C[S+]1CCCC1,> 100 µM
12,COCCOCc1nc(C#N)c(N)o1,> 100 µM
13,CC1=C(C#N)C(C#N)(C#N)C(NN(C)C)C1 (configuration not stated),29.3 µM
14,C[C@]12C=CC(=O)C=C1CC[C@H]1[C@@H]3C[C@@H](O)[C@](O)(C(=O)CO)[C@@]3(C)C[C@H](O)[C@@]12F,> 100 µM
15,CCSc1n/c(=C\c2ccco2)c2nnnn12,> 100 µM
16,CCOC(=O)C1=C(C)N(C)C23OC4(C(=O)OC)CC2c2ccccc2C1N3C4=O (configuration not stated),> 100 µM
17,CC(=O)c1c2c(cc3c1CC1(Cc4ccccc4C1=O)C3)CCC2 (configuration not stated),> 100 µM
18,CC(=O)NC1C(OCc2ccccc2)OC(CO)C(O)C1OC(C)C(=O)NC(C)C(=O)NC(CCC(=O)NCCCNc1c2ccccc2nc2cccc([N+](=O)[O-])c12)C(N)=O (configuration not stated),8.3 µM
19,COc1cc(Nc2cnc3cc(F)c(F)cc3n2)cc(OC)c1OC,> 100 µM
20,COc1ccc(C2CC(=O)CC(c3ccc(OC)cc3)C23C(=O)NC(=O)NC3=O)cc1 (configuration not stated),> 100 µM
21,COC(C)(C)C1=CCC(C)CC1 (configuration not stated),> 100 µM
22,C=C1CC(c2ccc(OCCCN3C(=O)c4ccccc4C3=O)c(OC)c2)OC1=O (configuration not stated),7.8 µM
23,c1ccc2sc(C3(N4CCCC4)CCCCCC3)cc2c1,26 µM
